# Test results from patent publication US9109041B2, “Analog compounds of analgesic peptides derived from the venom of crotalus durissus terrificus snakes, their uses, compositions, methods of preparation and purification” (priority 2004, dated 2015).
# Columns and labels:
# [1] = system: spontaneous pain induced by constriction of the sciatic nerve; assay: spontaneous pain induced by constriction of the sciatic nerve (licking and lifting time); assay type: in vivo, rat; settings: 5 μg/kg p.o.
# Description: For the induction of neuropathic pain, surgery was performed in the sciatic nerve, in accordance with the method described by Bennett, G. J and Xie, Y. K. (Pain, 33:87-107, 1988). The animals were anesthetized with halothane. The sciatic nerve was exposed in the middle region of the thigh, moving away the femoral biceps muscle. Close to the trifurcation of the sciatic nerve, 7 mm of distance from the trifurcation, 4 loose ligations were performed (chromed catgut 4-0) around it, distant from each other in approximately 1 mm. The bindings were performed along the nerve, up to 4-5 mm from the initial point. The incision was sutured in layers, using silk suture thread number 4-0.
# For the observation of the signs that characterize spontaneous pain, the animals were placed one by one, in a transparent plastic box. After the acclimatizing period of 30 minutes, the rats were observed during 10 minutes, determining the duration of the licking (in seconds) and lifting time. The licking and lifting activities, performed as part of the normal grooming behavior of animals, were not considered.
# [2] = system: spontaneous pain induced by the Walker 256 tumor; assay: spontaneous pain induced by the Walker 256 tumor (lifting, licking); assay type: in vivo, rat; settings: 6 μg/kg p.o.
# From the text: The Walker 256 tumor cells were kindly provided by Prof. Dr. Rui Curi, of the Physiology and Biophysics Department of the Biomedical Science Institute of the University of São Paulo. The tumor-bearing animal was sacrificed and the tumoral tissue was removed, placed on a Petri dish containing 0.9% saline. Then, the tumor was cut in smaller parts, and transferred into a beaker containing saline. The material was triturated with a fine-cut, until the tumor is totally fragmented. Then, this material was filtered in gauze and the liquid collected in a beaker. All procedures were performed on ice. The material of the beaker was transferred to 50 ml plastic tubes and centrifuged at 4° C., for 10 minutes, at 1200 rpm. After centrifugation, the supernatant was rejected and the precipitate resuspended in saline 0.9%. For cell counts, the suspension of cells was diluted (1:100) in saline. An aliquot (200 μl) was removed and placed in a test tube containing 200 μl of 1% Trypan blue. The cell number was determined in optical microscope using Neubauer's chamber. The cellular viability was determined considering viable the light-refracting cells.
# After determining the number of cells, 1 ml of the suspension, containing 1×10^7 cells, was injected by intraperitoneal route, on the right side of the rats to obtain liquid tumor (ascites).
# Five days after injection, the rats with ascites were sacrificed and the ascetic fluid collected from the peritoneal cavity and placed in a test tube containing EDTA. The liquid was diluted 100 times with phosphate-buffered saline (PBS), pH 7.4. The cell count was done after dilution with Trypan blue, as described above. Tumor cell count was ascertained to 1×10^6 cells in 100 μl, by dilution with PBS. This number of cells was determined in preliminary tests for induction of cancer pain in rats. In this final cell number adjustment, the volume of antibiotic (Benzetacil®) added to the suspension (150,000 units of antibiotic/10 ml of suspension), was taken into consideration. The antibiotic was used in order to avoid microbial contamination. The cells were injected by intraplantar route into one of the rat hind paws. Control animals were injected with PBS into the contralateral paw, in the same experimental conditions.
# Hyperalgesia, allodynia and spontaneous pain were determined before (BM-basal measurement) and 5 days after tumor cell injection, before (IM-initial measurement) and 2 hours after (FM-Final measurement) peptide administration.
# The results were analyzed comparing the mean values of the basal and initial measurements, or of the initial and final measurements or, when determined, by comparing the mean values obtained in the different experimental groups (Tables 17, 18, 19).
# [3] = system: thermal nociception (hot plate 50° C.); assay: hot plate test; assay type: in vivo, mice; settings: for latency time (reaction time), FM (s) ± S.E.M.: 2 hours after treatment; for latency time (reaction time), IM (s) ± S.E.M.: before treatment
# Description: This test is used for evaluation of drugs that interfere with nociception in the Central Nervous System, as for example, morphine and derived products, since the thermal stimulus activates directly the nociceptor, avoiding tissue lesion and consequent inflammation. The data obtained in this test indicate that the antinociceptive effect of a compound is mainly due to a supraspinally integrated response.
# This test was performed in accordance to the method described by Jacob, J. J. C. and Ramabadran, K. (Br. J. Pharmacol., 64:91-8, 1978). For this test, mice were placed on a metal surface kept at 50° C.±1. Results are expressed as the latency time (in seconds—s) to observe the licking of both anterior feet (reaction time). This test was applied before (initial measurement—IM) and 2 hours after the treatment of the animals (final measurement—FM) with saline (control) or with the synthetic peptide (1 and 3 μg/kg in 200 μl), orally. Each animal was considered as their own control. The results were analyzed comparing the mean values of the IM and FM or, when determined, by comparing the mean values obtained in the different experimental groups (Table 22).
# [4] = day 14 after surgery, before peptide, 10 min observation
# [5] = 5th day after tumor implantation, 2 hours after peptide
# [6] = 5th day after tumor implantation, before peptide
substance,measurement,setting,value
Xaa-Phe-Ser-Pro-Glu-Asn-Cys-Gln-Gly-Glu-Ser-Gln-Pro-Cys [SEQ ID NO: 2],"lifting time, FM 1 h",[1]; 1 h after peptide,2 ± 0.21 s
same,"paw licking time, FM 1 h",[1]; 1 h after peptide,2 ± 0.21 s
same,"lifting time, FM 3 h",[1]; 3 h after peptide,2 ± 0.26 s
same,"paw licking time, FM 3 h",[1]; 3 h after peptide,2 ± 0.21 s
same,"lifting time, FM 24 h",[1]; 24 h after peptide,2 ± 0.22 s
same,"paw licking time, FM 24 h",[1]; 24 h after peptide,2 ± 0.39 s
same,"lifting time, FM 48 h",[1]; 48 h after peptide,1.0 ± 0.16 s
same,"paw licking time, FM 48 h",[1]; 48 h after peptide,1.5 ± 0.22 s
same,"lifting time, FM 72 h",[1]; 72 h after peptide,2 ± 0.26 s
same,"paw licking time, FM 72 h",[1]; 72 h after peptide,1.5 ± 0.22 s
same,"lifting time, FM 96 h",[1]; 96 h after peptide,1.5 ± 0.16 s
same,"paw licking time, FM 96 h",[1]; 96 h after peptide,21 ± 0.26 s
same,"lifting time, FM 120",[1]; 120 h after peptide,95 ± 0.50 s
same,"paw licking time, FM 120",[1]; 120 h after peptide,21 ± 0.38 s
same,"lifting time, IM",[1]; [4],97 ± 0.43 s
same,"paw licking time, IM",[1]; [4],22 ± 0.64 s
same,"Licking duration, FM",[2]; [5],1.6 ± 0.81 s
same,"Lifting duration, FM",[2]; [5],25 ± 7.72 s
same,"Licking duration, IM",[2]; [6],15 ± 1.46 s
same,"Lifting duration, IM",[2]; [6],204 ± 30.74 s
same,"Licking duration, BM",[2]; before injection of the tumor,0 ± 0.00 s
same,"Lifting duration, BM",[2]; before injection of the tumor,0 ± 0.00 s
same,"latency time (reaction time), FM (s) ± S.E.M.",[3]; 1 μg/kg p.o.,25 ± 0.68 s
same,"latency time (reaction time), IM (s) ± S.E.M.",[3]; 1 μg/kg p.o.,18 ± 0.64 s
same,"latency time (reaction time), FM (s) ± S.E.M.",[3]; 3 μg/kg p.o.,27 ± 1.06 s
same,"latency time (reaction time), IM (s) ± S.E.M.",[3]; 3 μg/kg p.o.,22 ± 1.01 s
